Experimental findings from patent publication US8129380B2, “Phthalazinone derivatives” (AstraZeneca AB, priority 2008, dated 2012) are described below.

The assay has as its system HeLa cells. Description: Potentiation Factor (PF50): MMS growth inhibition, SRB assay. The class given is cell-based. To be noted: MMS 0-10 μg/ml, ratio IC50 control / IC50 + inhibitor; for PF50 (30 nM): PARP inhibitor at 30 nM; for PF50 (200 nM): PARP inhibitor at 200 nM. As to the method: The Potentiation Factor (PF50) for compounds is calculated as a ratio of the IC50 of control cell growth divided by the IC50 of cell growth+PARP inhibitor. Growth inhibition curves for both control and compound treated cells are in the presence of the alkylating agent methyl methanesulfonate (MMS). The test compounds were used at a fixed concentration of 0.2 micromolar. The concentrations of MMS were over a range from 0 to 10 μg/ml.
2,000 HeLa cells were seeded into each well of a flat-bottomed 96-well microtiter plate in a volume of 100 μl and incubated for 6 hours at 37° C. Cells were either replaced with media alone or with media containing PARP inhibitor at a final concentration of 30 nM or 200 nM. […] Cells treated with PARP inhibitor alone were used to assess the growth inhibition by the PARP inhibitor.
Cells were left for a further 16 hours before replacing the media and allowing the cells to grow for a further 72 hours at 37° C. The media was then removed and the cells fixed with 100 μl of ice cold 10% (w/v) trichloroacetic acid. The plates were incubated at 4° C. for 20 minutes and then washed four times with water. Each well of cells was then stained with 100 μl of 0.4% (w/v) SRB in 1% acetic acid for 20 minutes before washing four times with 1% acetic acid. Plates were then dried for 2 hours at room temperature. The dye from the stained cells was solubilized by the addition of 100 μl of 10 mM Tris Base into each well.
(In SRB staining, fixed cells bind dye roughly in proportion to their protein.)

Turning to `N#Cc1ccc(OC2CCN(C(=O)c3cc(Cc4n[nH]c(=O)c5ccccc45)ccc3F)CC2)nc1` [Compound 26c], the “PF50 (30 nM)” value was found to be 32.4.

On to `O=C(c1cc(Cc2n[nH]c(=O)c3ccccc23)ccc1F)N1CCC(Oc2cnccn2)CC1` [Compound 26d], for which the “PF50 (30 nM)” value was 4.0.

For `O=C(c1cc(Cc2n[nH]c(=O)c3ccccc23)ccc1F)N1CCC(Oc2ncccn2)CC1` [Compound 26e], the “PF50 (30 nM)” value was 2.7.

On to `N#Cc1ccnc(OC2CCN(C(=O)c3cc(Cc4n[nH]c(=O)c5ccccc45)ccc3F)CC2)c1` [Compound 26f], for which the “PF50 (30 nM)” value was 4.4.

As to `NC(=O)c1ccnc(OC2CCN(C(=O)c3cc(Cc4n[nH]c(=O)c5ccccc45)ccc3F)CC2)c1` [Compound 26g], the “PF50 (30 nM)” value is recorded as 1.6.

For `Cc1nccnc1OC1CCN(C(=O)c2cc(Cc3n[nH]c(=O)c4ccccc34)ccc2F)CC1` [Compound 26h], the “PF50 (30 nM)” value turned out to be 12.7.

On to `Cc1cnc(OC2CCN(C(=O)c3cc(Cc4n[nH]c(=O)c5ccccc45)ccc3F)CC2)c(C)n1` [Compound 26i], for which the “PF50 (30 nM)” value is on record as 8.0.

For the compound `Cc1cnc(C)c(OC2CCN(C(=O)c3cc(Cc4n[nH]c(=O)c5ccccc45)ccc3F)CC2)n1` [Compound 26j], the “PF50 (30 nM)” value is 1.2.

Consider `COc1ccnc(OC2CCN(C(=O)c3cc(Cc4n[nH]c(=O)c5ccccc45)ccc3F)CC2)c1` [Compound 26k], for which the “PF50 (30 nM)” value was 26.8.

`N#Cc1nccnc1OC1CCN(C(=O)c2cc(Cc3n[nH]c(=O)c4ccccc34)ccc2F)CC1` [Compound 26l]: the “PF50 (30 nM)” value turned out to be 1.2.

As to `O=C(c1cc(Cc2n[nH]c(=O)c3ccccc23)ccc1F)N1CCC(Oc2ccc(Cl)nc2)CC1` [Compound 26m], the “PF50 (30 nM)” value stood at 2.4.

`O=C(c1cc(Cc2n[nH]c(=O)c3ccccc23)ccc1F)N1CCC(OC(CF)CF)CC1` [Compound 29, 4-(3-(4-(1,3-difluoropropan-2-yloxy)piperidine-1-carbonyl)-4-fluorobenzyl)phthalazin-1(2H)-one]: the “PF50 (30 nM)” value is listed as 25.9.

For `O=C(c1cc(Cc2n[nH]c(=O)c3ccccc23)ccc1F)N1CCC(OC2CCCC2)CC1` [Compound 36, 4-(3-(4-(cyclopentyloxy)piperidine-1-carbonyl)-4-fluorobenzyl)phthalazin-1(2H)-one], the “PF50 (30 nM)” value amounted to 14.5 and the “PF50 (200 nM)” value came to 24.3.

As for `O=C(c1cccc(Cc2n[nH]c(=O)c3ccccc23)c1)N1CCC(OC2CCCC2)CC1` [Compound 37, 4-(3-(4-(cyclopentyloxy)piperidine-1-carbonyl)benzyl)phthalazin-1(2H)-one], the “PF50 (30 nM)” value is reported as 1.7 and the “PF50 (200 nM)” value stood at 10.6.

Consider `Cc1cccc(OC2CCN(C(=O)c3cc(Cc4n[nH]c(=O)c5ccccc45)ccc3F)CC2)n1` [Compound 39, 4-(4-fluoro-3-(4-(6-methylpyridin-2-yloxy)piperidine-1-carbonyl)benzyl)phthalazin-1(2H)-one], for which the “PF50 (30 nM)” value amounted to 1.4.

Regarding `O=C(c1cc(Cc2n[nH]c(=O)c3ccccc23)ccn1)N1CCC(OC2CCCC2)CC1` [Compound 40, 4-((2-(4-(cyclopentyloxy)piperidine-1-carbonyl)pyridin-4-yl)methyl)phthalazin-1(2H)-one], the “PF50 (30 nM)” value stood at 2.2 and the “PF50 (200 nM)” value stood at 19.8.

Take `COC1CCN(C(=O)c2cc(Cc3n[nH]c(=O)c4cccc(N)c34)ccc2F)CC1` [Compound 46, 5-amino-4-(4-fluoro-3-(4-methoxypiperidine-1-carbonyl)benzyl)phthalazin-1(2H)-one]: the “PF50 (30 nM)” value is reported as 20.1 and the “PF50 (200 nM)” value was 3.24.

With `CCOC1CCN(C(=O)c2cccc(Cc3n[nH]c(=O)c4ccccc34)c2)CC1` [Compound 47a, 4-(3-(4-ethoxypiperidine-1-carbonyl)benzyl)phthalazin-1(2H)-one], the “PF50 (30 nM)” value is 1.8.

On to `CCOC1CCN(C(=O)c2cc(Cc3n[nH]c(=O)c4c(C)[nH]c(C)c34)ccc2F)CC1` [Compound 54, 4-(3-(4-ethoxypiperidine-1-carbonyl)-4-fluorobenzyl)-5,7-dimethyl-2,6-dihydro-1H-pyrrolo[3,4-d]pyridazin-1-one], for which the “PF50 (30 nM)” value worked out at 1.3.

Take `COC1CCN(C(=O)c2cc(Cc3n[nH]c(=O)c4c(C)[nH]c(C)c34)ccc2F)CC1` [Compound 58, 4-(4-fluoro-3-(4-methoxypiperidine-1-carbonyl)benzyl)-5,7-dimethyl-2,6-dihydro-1H-pyrrolo[3,4-d]pyridazin-1-one]: the “PF50 (30 nM)” value came out at 1.0.

In the case of `COC1CCN(C(=O)c2cc(Cc3n[nH]c(=O)c4c(C)n(C)c(C)c34)ccc2F)CC1` [Compound 60, 4-(4-fluoro-3-(4-methoxypiperidine-1-carbonyl)benzyl)-5,6,7-trimethyl-2,6-dihydro-1H-pyrrolo[3,4-d]pyridazin-1-one], the “PF50 (30 nM)” value was 1.0.

Turning to `COC1CCN(C(=O)c2cc(Cc3n[nH]c(=O)c4c[nH]c(C)c34)ccc2F)CC1` [Compound 63, 4-(4-fluoro-3-(4-methoxypiperidine-1-carbonyl)benzyl)-5-methyl-2,6-dihydro-1H-pyrrolo[3,4-d]pyridazin-1-one], the “PF50 (30 nM)” value was determined as 1.0.

For `COC1CCN(C(=O)c2cc(Cc3n[nH]c(=O)c4cc(Cl)ccc34)ccc2F)CC1` [Compound 69, 7-chloro-4-(4-fluoro-3-(4-methoxypiperidine-1-carbonyl)benzyl)phthalazin-1(2H)-one], the “PF50 (30 nM)” value amounted to 1.7.

As to `CC(C)(C)OC1CCN(C(=O)c2cc(Cc3n[nH]c(=O)c4ccccc34)ccc2F)CC1` [Compound 70, 4-(3-(4-tert-butoxypiperidine-1-carbonyl)-4-fluorobenzyl)phthalazin-1(2H)-one], the “PF50 (30 nM)” value came to 32.1 and the “PF50 (200 nM)” value is 19.5.

`CC(C)(C)OC1CCN(C(=O)c2cccc(Cc3n[nH]c(=O)c4ccccc34)c2)CC1` [Compound 71, 4-[[3-[4-[(2-methylpropan-2-yl)oxy]piperidine-1-carbonyl]phenyl]methyl]-2H-phthalazin-1-one]: the “PF50 (30 nM)” value is recorded as 4.0 and the “PF50 (200 nM)” value is reported as 8.9.

As to `CC(C)(C)OC1CCN(C(=O)c2cc(Cc3n[nH]c(=O)c4ccccc34)ccn2)CC1` [Compound 73, 4-((2-(4-tert-butoxypiperidine-1-carbonyl)pyridin-4-yl)methyl)phthalazin-1(2H)-one], the “PF50 (30 nM)” value amounted to 6.2 and the “PF50 (200 nM)” value came out at 27.8.

With `CC1(O)CCN(C(=O)c2cc(Cc3n[nH]c(=O)c4ccccc34)ccc2F)CC1` [Compound 74, 4-(4-fluoro-3-(4-hydroxy-4-methylpiperidine-1-carbonyl)benzyl)phthalazin-1(2H)-one], the “PF50 (30 nM)” value is given as 1.5.

As to `O=C(COC1CCN(C(=O)c2cc(Cc3n[nH]c(=O)c4ccccc34)ccc2F)CC1)N1CCOCC1` [Compound 77, 4-(4-fluoro-3-(4-(2-morpholino-2-oxoethoxy)piperidine-1-carbonyl)benzyl)phthalazin-1(2H)-one], the “PF50 (30 nM)” value was 3.1.

Consider `O=C(c1cc(Cc2n[nH]c(=O)c3ccccc23)ccc1F)N1CCC(OCCN2CCOCC2)CC1` [Compound 80, 4-(4-fluoro-3-(4-(2-morpholinoethoxy)piperidine-1-carbonyl)benzyl)phthalazin-1(2H)-one], for which the “PF50 (30 nM)” value is reported as 1.5.

As to `CN(C)C(=O)COC1CCN(C(=O)c2cc(Cc3n[nH]c(=O)c4ccccc34)ccc2F)CC1` [Compound 83, 2-(1-(2-fluoro-5-((4-oxo-3,4-dihydrophthalazin-1-yl)methyl)benzoyl)piperidin-4-yloxy)-N,N-dimethylacetamide], the “PF50 (30 nM)” value turned out to be 1.7.

Take `O=C(COC1CCN(C(=O)c2cc(Cc3n[nH]c(=O)c4ccccc34)ccc2F)CC1)N1CC(F)(F)C1` [Compound 89, 4-(3-(4-(2-(3,3-difluoroazetidin-1-yl)-2-oxoethoxy)piperidine-1-carbonyl)-4-fluorobenzyl)phthalazin-1(2H)-one]: the “PF50 (30 nM)” value is given as 1.9.

On to `O=C(O)COC1CCN(C(=O)c2cc(Cc3n[nH]c(=O)c4ccccc34)ccc2F)CC1` [Compound 90, 2-(1-(2-fluoro-5-((4-oxo-3,4-dihydrophthalazin-1-yl)methyl)benzoyl)piperidin-4-yloxy)acetic acid], for which the “PF50 (30 nM)” value stood at 1.1.

As for `COC[C@H](C)OC1CCN(C(=O)c2cc(Cc3n[nH]c(=O)c4ccccc34)ccc2F)CC1` [Compound 93, (S)-4-(4-fluoro-3-(4-(1-methoxypropan-2-yloxy)piperidine-1-carbonyl)benzyl)phthalazin-1(2H)-one], the “PF50 (30 nM)” value is given as 2.8.

As for `COC1CCN(C(=O)c2cc(Cc3n[nH]c(=O)c4ccc(N)cc34)ccc2F)CC1` [Compound 99, 6-amino-4-(4-fluoro-3-(4-methoxypiperidine-1-carbonyl)benzyl)phthalazin-1(2H)-one], the “PF50 (30 nM)” value was 1.0.

On to `COC1CCN(C(=O)c2cc(Cc3n[nH]c(=O)c4cccc(Cl)c34)ccc2F)CC1` [Compound 104a, 5-chloro-4-(4-fluoro-3-(4-methoxypiperidine-1-carbonyl)benzyl)phthalazin-1(2H)-one], for which the “PF50 (30 nM)” value was determined as 1.3.
